Data on 14 compounds can be found in patent publication US9340577B2, “HLA binding motifs and peptides and their uses” (priority 1992, dated 2016).

Holding throughout (assay): biochemical
Test [1] has as its target DRB3*0101 (Homo sapiens, UniProt P01903+P79483). The test is classed as binding.
In test [2] the target is DRB1*1501 (Homo sapiens, UniProt P01903+P01911). Format: binding.
Test [3] concerns the target DRB1*1101 (Homo sapiens, UniProt P01903+P01911, A100R/A169T/A87E/I96F/K41T/L162R/M171V/P40S/Q125H/Q178H/Q39Y/Q99D/R42S/S66Y/T262R/V115G/W38E).
Test [4] addresses DRB1*0301 (Homo sapiens, UniProt P01903+P01911, A100K/A102G/A103R/A169T/F55Y/I96L/K41T/L162R/M171V/P40S/Q125H/Q178H/Q39Y/R42S/S66N/T106N/T262R/W38E/Y61H). Format: binding.
The target of test [5] is DRB1*0802 (Homo sapiens, UniProt P01903+P01911, A100R/A103L/A169T/F76Y/H45Y/I96F/K41T/L162R/M171V/P40S/Q125H/Q178H/Q39Y/Q99D/R218S/R42G/S66Y/V115G/W38E). Format: binding.
The target of test [6] is DR7 (DRB1*0701) (Homo sapiens, UniProt P01903+P01911, A100R/A102G/A103Q/D57E/D86V/E43K/F76Y/K127E/L162R/M171V/P40G/Q125H/Q99D/R33Q/R42Y/R54Q/S133A/S66F/T210M/V115G/Y107V/Y59L/Y89S). The test is classed as binding.
Test [7] deals with DRB5*0101 (Homo sapiens, UniProt P01903+Q30154).
The target of test [8] is DR4w4 (DRB1*0401) (Homo sapiens, UniProt P01903+P01911, A100K/A169T/F76Y/I96L/K127E/L162R/M171V/N62H/P40V/Q125Y/R42H/S133A/S149N/S66Y/V115G/V209L/W38E). The test is classed as binding.
The target of test [9] is DR1 (DRB1*0101) (Homo sapiens, UniProt P01903+P01911, A100R/D57E/F55L/F60I/F76Y/I96L/L162R/M171V/P40L/Q125E/R42F/V115G/Y59C). The test is classed as binding.
For test [10], the target named is DRB1*1302 (Homo sapiens, UniProt P01903+P01911, A100E/A169T/K41T/L162R/M171V/P40S/Q125H/Q178H/Q39Y/Q99D/R42S/S66N/T262R/V115G/W38E/Y61H). Format: binding.
DRB1*1302, sequence (P01903 26-254 limits assumed, other chains not shown): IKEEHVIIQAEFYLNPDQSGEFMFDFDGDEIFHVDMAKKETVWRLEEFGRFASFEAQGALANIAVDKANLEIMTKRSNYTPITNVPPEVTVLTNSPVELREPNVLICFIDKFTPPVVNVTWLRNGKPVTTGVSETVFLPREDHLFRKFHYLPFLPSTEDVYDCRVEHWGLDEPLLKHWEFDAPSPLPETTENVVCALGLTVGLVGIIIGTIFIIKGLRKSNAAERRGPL
Test [11] concerns the target DRB1*0901 (Homo sapiens, UniProt P01903+P01911, A100R/A103E/D57H/D86V/F55Y/F60I/F76Y/I96F/K127E/L162R/M171V/P40D/Q125H/Q99R/R33Q/R42F/S133A/S66N/T210M/V115G/W38K/Y107V/Y59G/Y89S). The test is classed as binding.
The target in test [12] is DRB4*0101 (Homo sapiens, UniProt P01903+P13762, G164S). The test is classed as binding.
Test [13] has as its target DRB1*1201 (Homo sapiens, UniProt P01903+P01911, A100R/A169T/D57E/D86V/F55L/H45Y/K41T/L162R/M171V/P40S/Q125H/Q178H/Q39Y/Q99D/R42G/S66L/T262R/V114A/V67L/W38E/Y59H/Y61H/Y89S). Format: binding.
Test [14] has as its target DRB1*0405 (Homo sapiens, UniProt P01903+P01911, A100R/A169T/D86S/F76Y/I96L/K127E/L162R/M171V/N62H/P40V/Q125Y/R42H/S133A/S149N/S66Y/V115G/V209L/W38E). Format: binding.

Where two headings read alike, the source gives them in different places. No end group written: not given here.

DRB1*0301, sequence (P01903 26-254 limits assumed, other chains not shown): as above
DRB1*1101, sequence (P01903 26-254 limits assumed, other chains not shown): as above

As a reminder, the IC50 is the concentration at which inhibition is half-maximal. Consider QKGRGYRGQHQAHSLERVCH [Peptide F025.05], for which the IC50 in test [1], in test [2], in [3] ([…]) and in test [4] was > 20 µM each time.

AATYNFAVLKLMGRGTKF [Peptide F025.08]: the IC50 in [1] and in test [4] was > 20 µM each time.

With `CC[C@H](C)[C@H](NC(=O)[C@@H](N)CCCCN)C(=O)N[C@@H](Cc1ccccc1)C(=O)NCC(=O)N[C@@H](CO)C(=O)N[C@@H](CC(C)C)C(=O)N[C@@H](C)C(=O)N[C@@H](Cc1ccccc1)C(=O)N[C@@H](CC(C)C)C(=O)N1CCC[C@H]1C(=O)N[C@@H](CCC(=O)O)C(=O)N[C@@H](CO)C(=O)N[C@@H](Cc1ccccc1)C(=O)N[C@@H](CC(=O)O)C(=O)NCC(=O)N[C@@H](CC(=O)O)C(=O)N1CCC[C@H]1C(=O)N[C@@H](C)C(=O)O` [Peptide 1533.07], the IC50 in test [5], in test [1], in test [3] (Binding affinity DRB1 *1101) and in [4] was > 20 µM each time.

For the compound VVTIPNSVQISVGYM [Peptide 1601.41], the IC50 in test [6] is 0.071 µM; in [1], > 20 µM; in test [2], 3.44 µM; in test [7] (Binding affinity DRB5 *0101), > 20 µM; in test [3] (Binding affinity DRB1 *1101), 4.22 µM; in test [4], > 20 µM. In test [8], this compound yielded an IC50 of 0.835 µM.

For the compound GRVNTHVHNPLLCSS [Peptide 1601.34], the IC50 in test [6] was 6.02 µM; in test [5], 2.69 µM; in [1] it was > 20 µM; in test [7] (Binding affinity DRB5 *0101), > 20 µM; in [9] it was 0.873 µM; in [3] (Binding affinity DRB1 *1101), > 20 µM. Moreover, the IC50 was 0.865 µM in test [10]; 9.95 µM in test [4]; 3.35 µM in test [11]; 5.98 µM in [12]; > 20 µM in test [8].

As for QIQVFETLEET [Peptide 1385.01], the IC50 in test [1], in test [9], in [10], in [4], in [12] and in test [8] was > 20 µM throughout.

EYILDLHPEPTDLFC [Peptide 1543.51]: the IC50 in test [6] was > 20 µM; in test [5] it was 16.3 µM; in test [1], 0.083 µM; in [2], > 20 µM; in [7] (Binding affinity DRB5 *0101), > 20 µM; in [9] it was 0.189 µM. For the same compound, the IC50 is 19.5 µM in test [3] (Binding affinity DRB1 *1101); 4.75 µM in [10]; > 20 µM in test [11]; 2.6 µM in test [13]; 0.0082 µM in test [12]; 1.14 µM in test [14].

For the compound `CC[C@H](C)[C@H](NC(=O)[C@@H](NC(=O)[C@@H]1CCCN1C(=O)[C@@H](NC(=O)[C@@H](NC(=O)[C@H](CC(N)=O)NC(=O)CNC(=O)[C@H](CO)NC(=O)[C@H](CS)NC(=O)[C@H](CC(C)C)NC(=O)[C@H](CCCCN)NC(=O)[C@H](CCCNC(=N)N)NC(=O)[C@H](CCCNC(=N)N)NC(=O)[C@@H](N)CCCCN)[C@@H](C)O)[C@@H](C)O)[C@@H](C)CC)C(=O)N[C@@H](Cc1c[nH]cn1)C(=O)O` [Peptide 1601.16], the IC50 was 4.74 µM in test [5]; > 20 µM in [1]; 9.33 µM in [2]; 4.98 µM in test [7] (Binding affinity DRB5 *0101); > 20 µM in [3] (Binding affinity DRB1 *1101); 0.0076 µM in test [10]. In addition, the IC50 in test [4] was 5.94 µM; in test [11], 0.061 µM; in test [12] it was > 20 µM; in [8] it was 0.311 µM.

For VHEGIRTYFVQFKDD [Peptide 1601.05], the half-inhibitory concentration (IC50) in [6] was 5.73 µM; in [5] it was 12.2 µM; in test [1] it was 9.92 µM; in [2], 0.038 µM; in [7] (Binding affinity DRB5 *0101), > 20 µM; in test [9] it was 9.28 µM. Also, the 50% inhibitory concentration (IC50) in test [3] (Binding affinity DRB1 *1101) was > 20 µM; in [4] it was 9.33 µM; in test [11], 5.86 µM; in test [12], 1.8 µM.

Regarding `CC[C@H](C)[C@H](NC(=O)[C@H](C)NC(=O)[C@@H](NC(=O)[C@@H](NC(=O)[C@H](CC(N)=O)NC(=O)[C@H](CC(C)C)NC(=O)[C@H](Cc1ccccc1)NC(=O)[C@H](CCCCN)NC(=O)[C@@H](NC(=O)[C@H](CCCNC(=N)N)NC(=O)[C@H](CCC(N)=O)NC(=O)[C@H](CCCCN)NC(=O)[C@@H](N)CCC(=O)O)[C@@H](C)O)[C@@H](C)O)C(C)C)C(=O)N1CCC[C@H]1C(=O)N[C@@H](CC(=O)O)C(=O)O` [Peptide 1601.19], the IC50 is 0.123 µM in [6]; > 20 µM in test [5]; > 20 µM in [1]; > 20 µM in test [2]; > 20 µM in test [7]; 0.061 µM in test [9]. For the same compound, the IC50 is > 20 µM in test [3]; 11.8 µM in [4]; 0.284 µM in test [11]; 6.45 µM in test [12]; 4.5 µM in test [8].

Regarding `CC[C@H](C)[C@H](NC(=O)CNC(=O)[C@H](Cc1ccc(O)cc1)NC(=O)[C@H](CC(C)C)NC(=O)[C@H](CO)NC(=O)[C@H](CC(C)C)NC(=O)[C@H](CC(C)C)NC(=O)[C@H](CO)NC(=O)[C@H](CC(C)C)NC(=O)[C@H](CCC(=O)O)NC(=O)[C@H](CO)NC(=O)[C@@H](N)CC(C)C)C(=O)N[C@@H](Cc1c[nH]cn1)C(=O)N[C@@H](CCCCN)C(=O)N[C@@H](CCC(N)=O)C(=O)O` [Peptide 68.0044], the IC50 in test [6], in [1] and in [4] was > 20 µM each time.

Regarding `CC[C@H](C)[C@H](N)C(=O)N[C@@H](CC(C)C)C(=O)N[C@@H](CC(C)C)C(=O)N[C@@H](Cc1c[nH]c2ccccc12)C(=O)N[C@@H](CCC(N)=O)C(=O)N1CCC[C@H]1C(=O)N[C@H](C(=O)N1CCC[C@H]1C(=O)N[C@H](C(=O)N[C@@H](Cc1c[nH]cn1)C(=O)N[C@H](C(=O)N[C@H](C(=O)N1CCC[C@H]1C(=O)N[C@@H](CC(C)C)C(=O)N[C@@H](CO)C(=O)O)C(C)C)[C@@H](C)O)C(C)C)[C@@H](C)CC` [Peptide 68.0038], the IC50 in [1], in test [7] (Binding affinity DRB5 *0101) and in [4] was > 20 µM each time.

For the compound `CSCC[C@H](NC(=O)CNC(=O)CNC(=O)[C@H](CCCNC(=N)N)NC(=O)[C@@H](NC(=O)[C@H](CCC(N)=O)NC(=O)[C@H](C)NC(=O)[C@@H](NC(=O)[C@@H](NC(=O)[C@H](CC(C)C)NC(=O)[C@H](Cc1c[nH]cn1)NC(=O)[C@H](Cc1ccc(O)cc1)NC(=O)[C@@H](N)CCCCN)[C@@H](C)O)C(C)C)C(C)C)C(=O)N[C@H](C(=O)N[C@@H](Cc1ccccc1)C(=O)O)C(C)C` [Peptide 68.0120], the IC50 in [1] and in test [4] was > 20 µM throughout.

Take STWHWTGCNKNTGIL [Peptide 1601.38]: the IC50 in test [5] was 11.7 µM; in test [1], > 20 µM; in test [2] it was > 20 µM; in test [7] (Binding affinity DRB5 *0101), 16.5 µM; in test [9] it was > 20 µM; in test [3] (Binding affinity DRB1 *1101), 0.662 µM. Also, the half-maximal inhibitory concentration (IC50) in [10] was 0.487 µM; in test [4], > 20 µM; in test [11], > 20 µM; in test [12], > 20 µM; in test [8], > 20 µM.
